Test results published in EP0904070B1, “THE USE OF BUCKMINSTERFULLERENE FOR TREATMENT OF NEUROTOXIC INJURY” (F. HOFFMANN-LA ROCHE AG, priority 1996, dated 1997).
One block for each substance: values may come before it.

Tests used:
[1] = Spin-trap (DMPO) electron paramagnetic resonance spectroscopy, superoxide radical scavenging (xanthine + xanthine oxidase); settings: compound co-incubated with xanthine oxidase and xanthine
[2] = test system: cortical neurons; experiment: NMDA excitotoxic neuronal injury in neuron-astrocyte co-cultures (LDH efflux); format: cell-based, Mouse; settings: for reduction of neuronal death from NMDA: 300(M, co-applied with NMDA for 10 minutes, assessed at 24 hours), all experiments performed to date
Protocol: (§1) Mouse neocortical cultures were prepared as neuron-astrocyte co-cultures (approximately 50% astrocytes) (Rose et al., 1992) or as neuronal cultures (< 2% astrocytes). Mouse embryos (gestational day 15) are removed from pregnant anesthetized Swiss-Webster mice, and the neocortex is dissected away from other brain structures. After brief incubation in trypsin, the cells are dissociated by trituration, and the cell suspension is then diluted into plating medium and plated onto previously-prepared 24-well Plastek culture plates coated with poly-D-lysine/laminin (for neuronal cultures) or onto an existing bed of astrocytes (for co-cultures). After 1-2 days in vitro, a partial exchange with glial conditioned medium is made for "pure" neuronal cultures, and cytosine arabinoside (3µM) is added immediately after feeding to inhibit glial proliferation. Mixed cultures are fed biweekly with growth medium until 11-12 days in vitro, when they are fed with serum-free MS containing 2 mM L-glutamine. Unless otherwise stated, cells were used at 14-16 days in vitro.
Carboxyfullerene (3-300 (M) was co-applied to neuron-astrocyte co-cultures described above with NMDA for assessment of neuroprotection. Brief exposure to NMDA in the presence of the carboxyfullerene was carried out by triple exchange of the medium with HBBSS, followed by addition of 50µM- 500µM NMDA plus carboxyfullerene for 10 minutes. The NMDA and carboxyfullerene were removed by quadruple exchange of the medium with MS, and the cultures were placed in the humidified, CO2 (5%), 37°C incubator for 24 hours, when the extent of injury was assessed.
Neuronal death was assessed at 24 hours after NMDA or AMPA administration by phase contrast microscopy at 200-400x, and by measurement of lactate dehydrogenase (LDH) efflux from dying cells into the bathing medium (Koh and Choi, 1987). Quantitation of cell death was confirmed in some experiments by trypan blue or propidium iodide staining and cell counting.

[3] = Spin-trap (DMPO) electron paramagnetic resonance spectroscopy, hydroxyl radical scavenging; settings: for scavenging of •OH by EPR: •OH from 100 µM H2O2 in Fe2+ (Fenton reaction), 100 mM DMPO, 4 µM compound
Protocol: Hydroxyl radical (spectra on left): ^•OH in the presence of DMPO alone (top), in the presence of 4 µM O-3a (middle), or in the presence of 4 µM R-3b (bottom). Superoxide radical (right): O2^•- in DMPO alone (top), in the presence of 400 µM O-3a (middle), in the presence of 400 µM R-3b (bottom). The arrow designates a spurious signal due to an unknown radical in the cavity. The sample was analyzed in a quartz flat cell (60 x 10 x 0.25 mm) in a Bruker 200, X-band EPR spectrometer. Settings were power = 1.6 mW, modulation = 1 G, field modulation = 100 Hz, R.G. = 3.2x10^5.

[4] = Spin-label/EPR membrane experiments (5- or 16-doxyl ketostearic acid in brain lipids); format: physicochemical, mouse; settings: for Lipid/aqueous partition factor: f = hL/hA, measured for 16-doxylstearic acid
Protocol: Values are mean ± SEM, n=8-12 per conditions. * = p<0.05 vs. untreated injury condition, using ANOVA followed by Student-Newman-Keuls test for multiple comparisons. ** = p<0.05 R-3b different than O-3a. […] The spin labels were added to lipids extracted from adult mouse brain at a ratio of 1:100. EPR settings were the same as those listed in the legend for Figure 9. Both isomers produce a shift in the order parameter (S) of the 5-doxyl group, but O-3a produced a greater change in S (Table 1).

[5] = test system: cortical neurons; experiment: AMPA excitotoxic neuronal injury in neuron-astrocyte co-cultures (LDH efflux); format: cell-based, Mouse
Protocol: as §1, with “Mouse” for “Mouse neocortical cultures were prepared as neuron-astrocyte co-cultures (approximately 50% astrocytes) (Rose et al., 1992) or as neuronal cultures (< 2% astrocytes). Mouse”

[6] = test system: Cortical neurons in glia-deficient culture; experiment: Serum deprivation apoptotic neuronal death in glia-deficient cultures (trypan blue cell counting); format: cell-based, Mouse; settings: 10 (M, 48 hours after onset of serum-deprivation); 10 µM
Protocol: as §1, with “vitro. […]” for “vitro.”
Additionally, neuronal cell death was determined at 48 hours removal of serum by counting cells that are no longer able to exclude trypan blue.

[7] = Solubility in water / aqueous solution; format: physicochemical
Text: Solutions of carboxyfullerene were translucent brown.

[8] = test system: NMDA receptors; experiment: 45Ca2+ tracer experiments, NMDA-stimulated calcium accumulation in cultured neurons; format: cell-based, Mouse; settings: co-application of up to 300 (M with NMDA (300 (M), 10 minutes))
Protocol: To verify that protection against NMDA-induced neuronal cell injury was not due to a reduction in NMDA-induced calcium influx, ^45Ca^2+ tracer studies were performed. Cultures were washed twice with HBBSS and then exposed to NMDA (300 (M), either alone or with C60(C(COOH)2)3, in HBBSS containing tracer ^45Ca^2+ (0.5 (Ci/culture well; NEN, Boston, MA). The exposure was terminated after 10 minutes by exchanging the medium four times with unlabelled HBBSS, followed by lysis of the cells by addition of 0.2% sodium dodecyl sulfate (SDS). The cells were left in SDS for 2 hours, and the lysate was then transferred to scintillation vials. An additional wash of each culture well with SDS was added to the vial, which then underwent (-counting.

[9] = test system: wild-type animals; experiment: Tolerability in wild-type animals treated two months; format: in vivo, mice; settings: 15 mg/kg/day
[10] = test system: FALS mice (Gurney GI strain); experiment: Survival in a transgenic model of amyotrophic lateral sclerosis; format: in vivo; settings: 15 mg/kg/day, intraperitoneal mini-osmotic pumps from 10 weeks of age
Protocol: The G1 line, with 18 copies and 4 times the SOD activity of wildtype animals, develops motor neuron death by 3-4 months of age, with hindlimb weakness, impaired grooming, and thinning along their flanks. Affected mice were dead before 5 months of age (Gurney et al., 1994).
C60(C(COOH)2)3 was used to treat FALS mice (Gurney GI strain) to determine its ability to treat FALS. At 10 weeks of age, Alzet mino-osmotic pumps (28 day, 6 (l/day, 15 mg/kg/day) containing C60(C(COOH)2)3 (the mixed isomers, which consist of >90% O-3a) or saline were implanted intraperitoneally. The pumps were replaced at 14 weeks of age. Videotaped assessments of open field walking were performed and scored using the Bresnahan scale for spinal cord injury (Basso et al., 1995). As reported by Gurney and colleagues, these animals develop motor symptoms by approximately 90 days of age, and are moribund between 125 and 145 days of age.
The 8 day increase in survival reached statistical significance (p=0.041), by t-test. There was no difference in survival for FALS mice who received no pumps (123 days, n=4) or those treated with saline-filled pumps (125 days, n=6).

[11] = test system: endothelial cell cultures; experiment: Protection from injury in endothelial cell cultures; format: cell-based; settings: compared with R-3b
[12] = test system: hepatocytes; experiment: Protection from injury in hepatocytes; format: cell-based; settings: compared with R-3b

Lipid/aqueous partition factor [4]: 0.6
Substance: C60(C(COOH)2)3 [Compound R-3b]
superoxide radical (spin adduct DMPO-OOH) EPR signal [1]: eliminated the superoxide radical signal
neuroprotective activity (in words) ([2]; excitotoxic injury by NMDA and AMPA, insult not stated separately): effective neuroprotectant
scavenging of •OH by EPR [3]: extremely potent scavengers

Substance: C60(C(COOH)2)3
reduction of neuronal cell death from AMPA ([5]; 100 (M, 24 hours exposure, MK-801 (10 (M) included, data from 4 experiments pooled)), 100 µM): > 80%
reduction in neuronal death (serum deprivation) [6]: 50%
reduction of neuronal death from NMDA [2]: nearly complete protection
reduction of neuronal death from NMDA ([2]; 300 µM): at least 60%
reduction in neuronal cell death (NMDA) ([2]; pooled data from three experiments (Fig. 5)): 75%
soluble in water [7]: at least 50 mM
45Ca2+ accumulation [8]: not affected
adverse health or behavioral effects ([9]; n=6): no adverse health or behavioral effects
weights versus untreated littermates ([9]; within genders): similar
onset of symptoms [10]: delay in onset of symptoms
delay in death ([10]; versus saline, p = 0.041, mixed isomers, >90% O-3a): 8 ± 2.2 days

Lipid/aqueous partition factor [4]: 1.0 ± 0.2
entry into the lipid bilayer ([4]; inferred from order parameter and 16-doxyl signal): to a greater extent than R-3b
Substance: C60(C(COOH)2)3 [Compound O-3a]
protection from injury in endothelial cell cultures [11]: enhanced protection over R-3b
protection against AMPA-induced neuronal death, compared with R-3b ([5]; Fig. 10 B, n=8-12 per condition): substantially better protection
superoxide radical (spin adduct DMPO-OOH) EPR signal [1]: eliminated the superoxide radical signal
protection from injury in hepatocytes [12]: enhanced protection over R-3b
protection from injury produced by application of NMDA, compared with R-3b ([2]; Fig. 10 A, n=8-12 per condition): slightly better protection
hydroxyl radical (spin adduct DMPO-OH) EPR signal ([3]; 150 (M compound included with H2O2, 15 minute period)): elimination of this OH signal
scavenging of •OH by EPR [3]: extremely potent scavengers
